The source of these data is patent publication US10208089B2, “Modulation of complement activity” (priority 2014, dated 2019).

Starred links: 1 amine or outer side, 2 acyl side, 3 side chain; linkers in the order of their positions; H or OH if unused. Positions of bridges follow the written chain, without caps; N, C: chain ends. Non-standard residues stand in square brackets, D forms with d. Residues, ends and D or L forms follow the SMILES beside them. Trp(7-aza) = N[C@@H](Cc1c[nH]c2ncccc12)C(=O)O; mXylylene = c1cc(C[*:1])cc(C[*:2])c1; oXylylene = c1ccc(C[*:2])c(C[*:1])c1; dPhg = N[C@@H](C(=O)O)c1ccccc1; Phg = N[C@H](C(=O)O)c1ccccc1; Tle = CC(C)(C)[C@H](N)C(=O)O; NMeS = CN[C@@H](CO)C(=O)O; Nle = CCCC[C@H](N)C(=O)O; Nva = CCC[C@H](N)C(=O)O

In this experiment the target is C5 (Homo sapiens, UniProt P01031). The experiment can be described thus: Human hemolysis assay (RBC lysis assay using complete human sera). As to conditions: inhibition of lysis of antibody-sensitized sheep erythrocytes, complete human sera. It counts as cell-based. The arrangement: with complete human sera (Complement Technology, Tyler Tex.) and polypeptides; tissue Complement Technology, Tyler Tex; host or cells: complete human serum.
C5, sequence (P01031 19-1676): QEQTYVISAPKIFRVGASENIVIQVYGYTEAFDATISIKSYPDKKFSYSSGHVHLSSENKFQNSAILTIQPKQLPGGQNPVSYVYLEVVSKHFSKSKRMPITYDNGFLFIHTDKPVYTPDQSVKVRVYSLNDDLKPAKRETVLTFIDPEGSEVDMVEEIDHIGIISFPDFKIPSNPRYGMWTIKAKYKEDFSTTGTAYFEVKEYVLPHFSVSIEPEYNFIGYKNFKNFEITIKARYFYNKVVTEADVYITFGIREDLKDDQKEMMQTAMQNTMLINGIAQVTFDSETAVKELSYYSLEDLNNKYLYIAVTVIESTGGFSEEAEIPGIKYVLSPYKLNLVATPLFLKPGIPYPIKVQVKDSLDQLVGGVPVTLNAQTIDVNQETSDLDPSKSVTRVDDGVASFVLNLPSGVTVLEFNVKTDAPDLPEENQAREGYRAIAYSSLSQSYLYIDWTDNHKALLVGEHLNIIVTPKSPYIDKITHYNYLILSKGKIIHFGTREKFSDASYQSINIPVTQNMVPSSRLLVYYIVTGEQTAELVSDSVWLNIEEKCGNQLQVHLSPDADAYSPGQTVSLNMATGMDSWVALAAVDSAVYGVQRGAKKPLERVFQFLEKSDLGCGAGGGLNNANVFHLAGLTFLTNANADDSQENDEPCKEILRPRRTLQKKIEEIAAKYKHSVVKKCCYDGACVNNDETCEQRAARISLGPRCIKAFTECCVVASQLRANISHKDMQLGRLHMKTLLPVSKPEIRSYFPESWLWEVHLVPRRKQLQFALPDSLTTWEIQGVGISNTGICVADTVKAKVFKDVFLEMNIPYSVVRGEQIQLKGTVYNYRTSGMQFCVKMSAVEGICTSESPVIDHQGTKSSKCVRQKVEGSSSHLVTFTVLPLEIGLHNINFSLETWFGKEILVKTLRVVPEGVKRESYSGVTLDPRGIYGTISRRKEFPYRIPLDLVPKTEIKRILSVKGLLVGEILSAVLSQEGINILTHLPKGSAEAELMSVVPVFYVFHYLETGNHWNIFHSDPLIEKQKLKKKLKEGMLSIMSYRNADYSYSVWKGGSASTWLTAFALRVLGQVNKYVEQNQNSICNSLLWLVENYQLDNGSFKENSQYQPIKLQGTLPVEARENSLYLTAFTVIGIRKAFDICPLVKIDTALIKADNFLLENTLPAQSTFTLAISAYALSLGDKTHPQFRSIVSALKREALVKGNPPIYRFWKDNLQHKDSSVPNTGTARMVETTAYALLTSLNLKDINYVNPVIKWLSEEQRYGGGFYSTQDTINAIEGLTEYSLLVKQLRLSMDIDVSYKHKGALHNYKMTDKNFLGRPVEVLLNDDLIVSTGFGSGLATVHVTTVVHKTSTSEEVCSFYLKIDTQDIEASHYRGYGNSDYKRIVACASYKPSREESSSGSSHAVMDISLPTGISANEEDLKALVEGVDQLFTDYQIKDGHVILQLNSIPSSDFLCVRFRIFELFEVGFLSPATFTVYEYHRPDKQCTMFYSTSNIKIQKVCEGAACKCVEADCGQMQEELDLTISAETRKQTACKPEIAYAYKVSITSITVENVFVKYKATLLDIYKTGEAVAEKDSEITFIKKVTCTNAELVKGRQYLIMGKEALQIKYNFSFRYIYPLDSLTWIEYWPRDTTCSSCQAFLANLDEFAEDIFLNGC
For `CCC[C@H](NC(=O)[C@@H]1CSCc2ccccc2CSC[C@H](NC(=O)[C@H](CCC)NC(C)=O)C(=O)N[C@@H](c2ccccc2)C(=O)N[C@@H]([C@@H](C)O)C(=O)N[C@@H](Cc2c[nH]c3ncccc23)C(=O)N[C@@H](CCC(=O)O)C(=O)N[C@@H](Cc2ccc(O)cc2)C(=O)N(C)[C@@H](CO)C(=O)N[C@@H](Cc2c[nH]cn2)C(=O)N1)C(N)=O` [Compound R3049, [oXylyl(2,10)]Ac-Nvl-C-Phg-T-azaTrp-E-Y-(N-Me)S-H-C-Nvl-NE2] (Ac-[Nva]C[Phg]T[Trp(7-aza)]EY[NMeS]HC[Nva]-NH2; linker 2-10 via oXylylene), the IC50 was above 3.1 µM.

`CCC[C@H](NC(=O)[C@@H](NC(=O)[C@@H]1CCCN1C(=O)[C@H](Cc1ccc(O)cc1)NC(=O)[C@H](CCC(=O)O)NC(=O)[C@H](Cc1c[nH]c2ncccc12)NC(=O)[C@H](Cc1ccc(O)cc1)NC(=O)[C@@H](NC(=O)[C@H](CC(=O)O)NC(=O)[C@@H]1CSCc2cccc(c2)CSC[C@H](NC(=O)[C@@H](N)CCSC)C(=O)N[C@@H](C(C)C)C(=O)N[C@@H](CCC(=O)O)C(=O)N[C@@H](CCCNC(=N)N)C(=O)N[C@@H](Cc2ccccc2)C(=O)N1)C(C)(C)C)c1ccccc1)C(N)=O` [Compound R3057, [mXylyl(2,7)]M-C-V-E-R-F-C-D-Tbg-Y-azaTrp-E-Y-P-Phg-Nvl-NH2] (H-MCVERFCD[Tle]Y[Trp(7-aza)]EYP[Phg][Nva]-NH2; linker 2-7 via mXylylene): the IC50 was found to be 0.0124 µM.

Turning to `CCC[C@H](NC(=O)[C@H](NC(=O)[C@@H]1CCCN1C(=O)[C@H](Cc1ccc(O)cc1)NC(=O)[C@H](CCC(=O)O)NC(=O)[C@H](Cc1c[nH]c2ncccc12)NC(=O)[C@H](Cc1ccc(O)cc1)NC(=O)[C@@H](NC(=O)[C@H](C)NC(=O)[C@@H]1CSCc2cccc(c2)CSC[C@H](NC(C)=O)C(=O)N[C@@H](C(C)C)C(=O)N[C@@H](CCC(=O)O)C(=O)N[C@@H](CCCNC(=N)N)C(=O)N[C@@H](Cc2ccccc2)C(=O)N1)C(C)(C)C)c1ccccc1)C(N)=O` [Compound R3158, [mXylyl(1,6)]Ac-C-V-E-R-F-C-A-Tbg-Y-azaTrp-E-Y-P-(D-Phg)-Nvl-NH2] (Ac-CVERFCA[Tle]Y[Trp(7-aza)]EYP[dPhg][Nva]-NH2; linker 1-6 via mXylylene), the IC50 came out at 0.327 µM.

`CCC[C@H](NC(C)=O)C(=O)N[C@@H](CS)C(=O)N[C@@H](Cc1ccc(O)cc1)C(=O)N[C@@H](CC(N)=O)C(=O)N[C@@H](CC(N)=O)C(=O)N[C@H](C(=O)N[C@@H](CCC(=O)O)C(=O)N[C@@H](Cc1c[nH]c2ncccc12)C(=O)N[C@@H](CCC(=O)O)C(=O)N[C@@H](CS)C(=O)N1CCC[C@H]1C(=O)N[C@H](C(=O)N[C@H](C(N)=O)C(C)(C)C)c1ccccc1)C(C)(C)C` [Compound R3126, Ac-Nvl-C-Y-N-N-Tbg-E-azaTrp-E-C-P-Phg-Tbg-NH2] (Ac-[Nva]CYNN[Tle]E[Trp(7-aza)]ECP[Phg][Tle]-NH2): the IC50 is above 3 µM.

Turning to `CCCC[C@H](NC(C)=O)C(=O)N[C@H]1CSCc2cccc(c2)CSC[C@@H](C(=O)N[C@@H](CCC)C(N)=O)NC(=O)[C@H](Cc2c[nH]cn2)NC(=O)[C@H](CO)N(C)C(=O)[C@H](Cc2ccc(O)cc2)NC(=O)[C@H](CCC(=O)O)NC(=O)[C@H](Cc2c[nH]c3ncccc23)NC(=O)[C@H]([C@@H](C)O)NC(=O)[C@H](c2ccccc2)NC1=O` [Compound R3112, [mXyly1(2,10)]Ac-Nle-C-Phg-T-azaTrp-E-Y-(N-Me)S-H-C-Nvl-NH2] (Ac-[Nle]C[Phg]T[Trp(7-aza)]EY[NMeS]HC[Nva]-NH2; linker 2-10 via mXylylene), the IC50 is above 5 µM.
